# Legend:
# wild oat = test: Test B pre/postemergence wild oat; assay type: in vivo, Avena fatua
# Outline: (§1)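 Herbicidal effect was estimated by eye on a ten-point control scale after plants spent twelve to sixteen days in a greenhouse following soil or foliar treatment. Foliar sprays targeted plants at one to four leaves; all doses were formulated in a non-phytotoxic solvent with surfactant.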
# soybean = test: Test B pre/postemergence soybean; assay type: in vivo, Glycine max
# Outline: as §1
# purple nutsedge = test: Test B pre/postemergence purple nutsedge; assay type: in vivo, Cyperus rotundus
# Outline: as §1
# surinam grass = test: Test B pre/postemergence surinam grass; assay type: in vivo, Brachiaria decumbens
# Outline: as §1
# crabgrass = test: Test B pre/postemergence crabgrass; assay type: in vivo, Digitaria sanguinalis
# Outline: as §1
# velvetleaf = test: Test B pre/postemergence velvetleaf; assay type: in vivo, Abutilon theophrasti
# Outline: as §1
# rape = test: Test B pre/postemergence rape; assay type: in vivo, Brassica napus
# Outline: as §1
# blackgrass = test: Test B pre/postemergence blackgrass; assay type: in vivo, Alopecurus myosuroides
# Outline: as §1
# corn = test: Test B pre/postemergence corn; assay type: in vivo, Zea mays
# Outline: as §1
# pigweed = test: Test B pre/postemergence pigweed; assay type: in vivo, Amaranthus retroflexus
# Outline: as §1
# giant foxtail = test: Test B pre/postemergence giant foxtail; assay type: in vivo, Setaria faberii
# Outline: as §1
# morningglory = test: Test B pre/postemergence morningglory; assay type: in vivo, Ipomoea hederacea
# Outline: as §1
# cocklebur = test: Test B pre/postemergence cocklebur; assay type: in vivo, Xanthium strumarium
# Outline: as §1
# sugar beet = test: Test B pre/postemergence sugar beet; assay type: in vivo, Beta vulgaris
# Outline: as §1
# smallflower flatsedge = test: Test B flood test smallflower flatsedge; assay type: in vivo, Cyperus difformis
# Outline: (§2)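 Flood test on plants grown to the 2-leaf stage; treated plants kept in greenhouse twelve to sixteen days, then visually rated against controls on a 0 (no effect) to 10 (complete control) scale.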
# bamyardgrass = test: Test B flood test barnyardgrass; assay type: in vivo, Echinochloa crus-galli
# Outline: as §2
# [1] = Preemergence, Rate 62 g/ha, scale of 0 to 10 where 0 is no effect and 10 is complete control
# [2] = Preemergence, Rate 125 g/ha, 0 is no effect, 10 is complete control
# [3] = Preemergence, Rate 250 g/ha, scale 0 to 10, 0 is no effect, 10 is complete control
# [4] = Preemergence, Rate 500 g/ha, scale 0 to 10 (0 no effect, 10 complete control)
# [5] = Rate 250 g/ha, Postemergence, scale 0 to 10, 0 is no effect, 10 is complete control
# [6] = Rate 500 g/ha, Postemergence, scale 0 to 10
# [7] = Postemergence, Rate 125 g/ha, scale of 0 to 10 where 0 is no effect and 10 is complete control
# [8] = Rate 62 g/ha, Postemergence, scale of 0 to 10 where 0 is no effect and 10 is complete control
# [9] = Rate 62 g/ha, headed Pre-emergence (flood test species), scale 0 to 10 (0 no effect, 10 complete control)
# [10] = Rate 125 g/ha, Pre-emergence, flood test species, scale 0 to 10 where 0 is no effect and 10 is complete control
# [11] = Rate 250 g/ha, Pre-emergence, flood-test species, scale 0 to 10, 0 is no effect, 10 is complete control
structure (smiles),measurement,setting,value
CC(C)N(Cc1ccccc1)C(=O)n1oc(=O)n(C(C)C)c1=O [Compound 165],Wild oats plant response rating,wild oat; [1],4
same,Wild oats plant response rating (0 to 10 scale),wild oat; [2],4
same,Wild oats plant response rating,wild oat; [3],4
same,Wild oats plant response rating,wild oat; [4],6
same,"Plant response rating, Wild oats",wild oat; [5],3
same,Wild oats plant response rating,wild oat; [6],3
same,Soybean plant response rating,soybean; [7],4
same,Soybean plant response rating,soybean; [1],0
same,Soybean plant response rating (0 to 10 scale),soybean; [2],0
same,Soybean plant response rating,soybean; [3],0
same,Soybean plant response rating,soybean; [4],0
same,Soybean plant response rating,soybean; [8],2
same,"Plant response rating, Soybean",soybean; [5],6
same,Soybean plant response rating,soybean; [6],6
same,Nutsedge plant response rating,purple nutsedge; [7],0
same,Nutsedge plant response rating,purple nutsedge; [1],0
same,Nutsedge plant response rating (0 to 10 scale),purple nutsedge; [2],0
same,Nutsedge plant response rating,purple nutsedge; [3],0
same,Nutsedge plant response rating,purple nutsedge; [4],0
same,Nutsedge plant response rating,purple nutsedge; [8],0
same,"Plant response rating, Nutsedge",purple nutsedge; [5],0
same,Nutsedge plant response rating,purple nutsedge; [6],0
same,B. signalgrass plant response rating,surinam grass; [7],1
same,B. signalgrass plant response rating,surinam grass; [1],0
same,B. signalgrass plant response rating (0 to 10 scale),surinam grass; [2],4
same,B. signalgrass plant response rating,surinam grass; [3],6
same,B. signalgrass plant response rating,surinam grass; [4],6
same,B. signalgrass plant response rating,surinam grass; [8],0
same,"Plant response rating, B. signalgrass",surinam grass; [5],5
same,B. signalgrass plant response rating,"surinam grass; Rate 500 g/ha, Postemergence, scale 0 to 10, 0 no effect, 10 complete control",8
same,Crabgrass plant response rating,crabgrass; [7],4
same,Crabgrass plant response rating,crabgrass; [1],4
same,Crabgrass plant response rating (0 to 10 scale),crabgrass; [2],7
same,Crabgrass plant response rating,crabgrass; [3],8
same,Crabgrass plant response rating,crabgrass; [4],8
same,Crabgrass plant response rating,crabgrass; [8],2
same,"Plant response rating, Crabgrass",crabgrass; [5],9
same,Crabgrass plant response rating,crabgrass; [6],9
same,Velvetleaf plant response rating,velvetleaf; [1],0
same,Velvetleaf plant response rating (0 to 10 scale),velvetleaf; [2],1
same,Velvetleaf plant response rating,velvetleaf; [3],4
same,Velvetleaf plant response rating,velvetleaf; [4],4
same,"Plant response rating, Velvetleaf",velvetleaf; [5],1
same,Velvetleaf plant response rating,velvetleaf; [6],1
same,Rape plant response rating,rape; [7],0
same,Rape plant response rating,rape; [1],0
same,Rape plant response rating (0 to 10 scale),rape; [2],0
same,Rape plant response rating,rape; [3],4
same,Rape plant response rating,rape; [4],10
same,Rape plant response rating,rape; [8],0
same,"Plant response rating, Rape",rape; [5],0
same,Rape plant response rating,rape; [6],2
same,Blackgrass plant response rating,blackgrass; [7],3
same,Blackgrass plant response rating,blackgrass; [1],0
same,Blackgrass plant response rating (0 to 10 scale),blackgrass; [2],3
same,Blackgrass plant response rating,blackgrass; [3],6
same,Blackgrass plant response rating,blackgrass; [4],8
same,Blackgrass plant response rating,blackgrass; [8],0
same,"Plant response rating, Blackgrass",blackgrass; [5],7
same,Blackgrass plant response rating,blackgrass; [6],8
same,Corn plant response rating,corn; [7],0
same,Corn plant response rating,corn; [1],0
same,Corn plant response rating (0 to 10 scale),corn; [2],0
same,Corn plant response rating,corn; [3],0
same,Corn plant response rating,corn; [4],0
same,Corn plant response rating,corn; [8],0
same,"Plant response rating, Corn",corn; [5],3
same,Corn plant response rating,corn; [6],3
same,Redroot pigweed plant response rating,pigweed; [7],2
same,Redroot pigweed plant response rating,pigweed; [1],0
same,Redroot pigweed plant response rating (0 to 10 scale),pigweed; [2],0
same,Redroot pigweed plant response rating,pigweed; [3],0
same,Redroot pigweed plant response rating,pigweed; [4],1
same,Redroot pigweed plant response rating,pigweed; [8],0
same,"Plant response rating, Redroot pigweed",pigweed; [5],4
same,Redroot pigweed plant response rating,pigweed; [6],4
same,Giant foxtail plant response rating,giant foxtail; [7],1
same,Giant foxtail plant response rating,giant foxtail; [1],6
same,Giant foxtail plant response rating (0 to 10 scale),giant foxtail; [2],7
same,Giant foxtail plant response rating,giant foxtail; [3],8
same,Giant foxtail plant response rating,giant foxtail; [4],9
same,Giant foxtail plant response rating,giant foxtail; [8],0
same,"Plant response rating, Giant foxtail",giant foxtail; [5],5
same,Giant foxtail plant response rating,giant foxtail; [6],8
same,Morningglory plant response rating,morningglory; [7],3
same,Morningglory plant response rating,morningglory; [1],0
same,Morningglory plant response rating (0 to 10 scale),morningglory; [2],0
same,Morningglory plant response rating,morningglory; [3],0
same,Morningglory plant response rating,morningglory; [4],3
same,Morningglory plant response rating,morningglory; [8],3
same,"Plant response rating, Morningglory",morningglory; [5],3
same,Morningglory plant response rating,morningglory; [6],4
same,Cocklebur plant response rating,cocklebur; [7],0
same,Cocklebur plant response rating,cocklebur; [1],0
same,Cocklebur plant response rating (0 to 10 scale),cocklebur; [2],0
same,Cocklebur plant response rating,cocklebur; [3],0
same,Cocklebur plant response rating,cocklebur; [4],0
same,Cocklebur plant response rating,cocklebur; [8],0
same,"Plant response rating, Cocklebur",cocklebur; [5],0
same,Cocklebur plant response rating,cocklebur; [6],0
same,Sugarbeets plant response rating,sugar beet; [7],0
same,Sugarbeets plant response rating,sugar beet; [1],0
same,Sugarbeets plant response rating (0 to 10 scale),sugar beet; [2],4
same,Sugarbeets plant response rating,sugar beet; [3],4
same,Sugarbeets plant response rating,sugar beet; [4],4
same,Sugarbeets plant response rating,sugar beet; [8],0
same,"Plant response rating, Sugarbeets",sugar beet; [5],3
same,Sugarbeets plant response rating,sugar beet; [6],6
same,S. Flatsedge plant response rating,smallflower flatsedge; [9],0
same,S. Flatsedge plant response rating,smallflower flatsedge; [10],0
same,S. Flatsedge plant response rating,smallflower flatsedge; [11],0
same,S. Flatsedge plant response rating,"smallflower flatsedge; Rate 500 g/ha, Pre-emergence, flood test species, scale 0 to 10 (0 no effect, 10 complete control)",0
same,Barnyardgrass plant response rating,bamyardgrass; [9],0
same,Barnyardgrass plant response rating,bamyardgrass; [10],0
same,Barnyardgrass plant response rating,bamyardgrass; [11],0
same,"Plant response rating, Barnyardgrass","bamyardgrass; Rate 500 g/ha, headed Pre-emergence (flood test species), scale 0 to 10 (0 no effect, 10 complete control)",1

# Source: patent publication US6737383B1, “Herbicidal oxadiazolidines” (priority 1999, dated 2004)
